Where two headings read alike, the source gives them in different places.
Columns and labels:
NMRI male mice = assay: Hot plate test in mice; type: in vivo; conditions: sc
Experimental: Hot plate test in mice Method
A modification of method of Eddy et al. (1953) Eddy, N. B., Leimback D.: Synthetic analgesics II. Dithienylbutenyl and dithienylbutylamines. J. Pharmacol. Exp. Ther. 107 /1953/, 385 to 393 was used. NMRI male mice (20 to 25 g body weight) were dropped on a hot plate (56.0 ± 0.5°C) and the latency time elapsed until licking the forepaws was measured. The compounds were administered subcutaneously and 15, 30, 45 and 60 minutes later the reaction time was measured again. Animals were regarded as positive if they produced at least twice 2.5-fold reaction time extension as related to their control values.

mice [1] = conditions: mouse, in vivo, sc, 5 mg/kg
mice [2] = assay: Acetic acid induced writhing test in mice; type: in vivo
Experimental: Acetic acid induced writhing test in mice Method
Groups of 12 mice weighing 20 to 25 g were treated with 0.75% (v/v) acetic acid in a volume of 20 ml/kg administered intraperitoneally according to the method of Koster, R., Anderson, M., de Beer, E. J.: Acetic acid for analgesic screening, Fed. Proc. 18 [1959], 412. Between 5 and 10 minutes after the administration of acetic acid the total number of the typical "writhing" reactions was counted and expressed as percent inhibition compared to the concurrent controls. The test compounds were applied subcutaneously partly with a pretreatment period of 30 min. and partly without such. Statistical evaluation was performed by Student's t test and ID₅₀ values were determined by plotting the log-dose versus percentage response as compared to vehicle-treated animals. 10 mg/kg s.c. 17-(allyl)-4,5α-(epoxy)-3,14-di-(hydroxy)-morphinan-6-one {Naloxone} was administered 15 minutes before drug treatment.

[3] = Mus musculus, hot plate 56.0 ± 0.5°C, subcutaneous, reaction time at 15, 30, 45 and 60 minutes, positive = at least twice 2.5-fold reaction time extension, read-out: ED50

## Clc1ccc([C@H]2C[C@H]3CC[C@@H]2N3)cn1 (racemic) [Example 6, Epi-epibatidine]
NMRI male mice; mouse, in vivo
  ED50: 0.7 mg/kg s.c.
  analgesic potency, times stronger than that of codeine: 13 times
  analgesic potency, times stronger than that of morphine: 4 times
Mice [1]
  lethality in mice: does not destroy mice
Mice [2]; mouse, in vivo
  ID50 Pretreatment with 10 mg/kg naloxone s.c.: 3.2 mg/kg s.c.
  ID50 Without pretreatment: 2.6 mg/kg s.c.
  antagonism of the antinociception by naloxone: inactive

## Fc1ccc([C@H]2C[C@H]3CC[C@@H]2N3)cc1 (racemic) [Example 12, (±)-endo-2β-[1'-(Fluoro)-phen-4'-yl]-7α-azabicyclo[2.2.1]heptane]
NMRI male mice; [3]
  ED50: 2.1 mg/kg

## Clc1ccc([C@H]2C[C@H]3CC[C@@H]2N3)cc1 (racemic) [Example 19, (±)-endo-2β-[1'-(Chloro)-phen-4'-yl]-7α-azabicyclo[2.2.1]heptane]
NMRI male mice; [3]
  ED50: 6.3 mg/kg

## COc1ccc([C@H]2C[C@H]3CC[C@@H]2N3)cn1 (racemic) [Example 26, (±)-endo-2β-[6'-(Methoxy)-pyrid-3'-yl]-7α-azabicyclo[2.2.1]heptane]
NMRI male mice; [3]
  ED50: 3.1 mg/kg

## c1cncc([C@H]2C[C@H]3CC[C@@H]2N3)c1 (racemic) [Example 33, (±)-endo-2β-[Pyrid-3'-yl]-7α-azabicyclo[2.2.1]heptane]
NMRI male mice; [3]
  ED50: ~10 mg/kg

## Clc1ccc([C@H]2C[C@H]3CC[C@@H]2N3)c(Cl)c1 (racemic) [Example 42, (±)-endo-2β-[1',3'-Di-(chloro)-phen-4'-yl]-7α-azabicyclo[2.2.1]heptane]
NMRI male mice; [3]
  ED50: 1.8 mg/kg

## COc1ccc([C@H]2C[C@H]3CC[C@@H]2N3)c(OC)c1 (racemic) [Example 48, (±)-endo-2β-[1',3'-Di-(methoxy)-phen-4'-yl]-7α-azabicyclo[2.2.1]heptane]
NMRI male mice; [3]
  ED50: 2.9 mg/kg

## CCOc1ccc([C@H]2C[C@H]3CC[C@@H]2N3)cn1 (racemic) [Example 49, (±)-2β-[6'-(Ethoxy)-pyrid-3'-yl]-7α-azabicyclo[2.2.1]heptane]
NMRI male mice; [3]
  ED50: 3.5 mg/kg

## CN1CC[C@]23c4c5ccc(O)c4O[C@H]2[C@@H](O)C=C[C@H]3[C@H]1C5.Cl [Reference substance A, Morphine-HCl]
Mice [2]; mouse, in vivo
  ID50 Pretreatment with 10 mg/kg naloxone s.c.: 46.8 mg/kg s.c.
  ID50 Without pretreatment: 0.6 mg/kg s.c.
  increase of ID50 value in antinociception after naloxone pretreatment: about 80 fold

## COc1ccc2c3c1O[C@H]1[C@@H](O)C=C[C@H]4[C@@H](C2)N(C)CC[C@@]341.Cl [Reference substance B, Codeine-HCl]
NMRI male mice; [3]
  ED50: 9.4 mg/kg
Mice [2]; 0.75% (v/v) acetic acid i.p., naloxone 10 mg/kg s.c. 15 minutes before drug treatment
  ID50 Pretreatment with 10 mg/kg naloxone s.c.: 45.4 mg/kg s.c.
Mice [2]; Mus musculus, sc, 0.75% (v/v) acetic acid i.p., writhing counted between 5 and 10 minutes, no naloxone, read-out: ID50 Without pretreatment
  ED50: 9.9 mg/kg
Mice [2]; naloxone 10 mg/kg s.c. for 15 minutes
  increase of ID50 value in antinociception after naloxone pretreatment: ~5 fold
